Read-outs that look alike come from different tables or passages of the source.
What was measured:
IMP-1 = IMP-1 (Serratia marcescens, UniProt P52699); test: Enzyme activity: determination of IC50, fluorescence assay with CCF2-FA substrate; format: biochemical; details: CCF2-FA 1.25 μM, 2 hours at 25° C., read-out: IMP1 IC50
In short: (§1)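 Enzyme (1 pM NDM-1, 2 pM IMP-1, 30 pM VIM-1) incubated with inhibitor (20 to 0.00063 μM) and 1.25 μM CCF2-FA in 100 mM KH2PO4 pH 7, 0.005% Tween-20, 10 μM ZnSO4, 2 h at 25 °C. Fluorescence read at 460 nm (ex 405 nm); IC50 by 4-parameter fit.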

NDM-1 = NDM-1 (Klebsiella pneumoniae, UniProt C7C422); test: as above; format: biochemical; details: CCF2-FA 1.25 μM, 2 hours at 25° C., read-out: NDM1 IC50
NDM-1, sequence (C7C422 29-270, looked up, species assumed): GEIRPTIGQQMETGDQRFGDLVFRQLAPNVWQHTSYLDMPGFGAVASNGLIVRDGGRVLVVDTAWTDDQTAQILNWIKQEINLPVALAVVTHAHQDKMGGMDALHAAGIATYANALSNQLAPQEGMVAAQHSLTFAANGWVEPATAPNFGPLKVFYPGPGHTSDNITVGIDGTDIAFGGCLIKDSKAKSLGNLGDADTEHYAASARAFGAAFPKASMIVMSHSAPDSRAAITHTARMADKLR
In short: as §1

VIM-1 = VIM-1 (Pseudomonas aeruginosa, UniProt A0A0F7KYQ8); test: as above; format: biochemical; details: CCF2-FA 1.25 μM, 2 hours at 25° C., read-out: VIM1 IC50
In short: as §1

[1] = system: Escherichia coli expressing NDM-1 (CLB30005); test: Antibiotic potentiation activity: synergistic concentration (MITC95) with imipenem, growth by OD600; format: cell-based
In short: (§2)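 Strains grown overnight at 35° C, resuspended in saline, diluted 1:100 into 1.1×CAMHB; imipenem at 1 μg/ml or 4 μg/ml with test compound 200 μM to 0.195 μM. Incubated 22 hours to 24 hours at 35° C, OD600 read; MITC95 is lowest compound concentration inhibiting 95% of growth.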

[2] = system: Klebsiella pneumoniae expressing VIM-1 (IHMA599644); test: as above; format: cell-based
In short: as §2

[3] = system: Serratia marcescens expressing IMP-1 (CL5741); test: as above; format: cell-based
In short: as §2

[4] = 95% inhibition of bacterial growth, strain CLB30005
[5] = 95% inhibition of bacterial growth, strain IHMA599644
[6] = 95% inhibition of bacterial growth, strain CL5741
[7] = E. coli CLB30005 (NDM-1), 95% inhibition of growth
[8] = K. pneumoniae IHMA599644 (VIM-1), 95% inhibition of growth
[9] = S. marcescens CL5741 (IMP-1), 95% inhibition of growth

IMP-1, sequence (P52699 19-246, looked up, species assumed): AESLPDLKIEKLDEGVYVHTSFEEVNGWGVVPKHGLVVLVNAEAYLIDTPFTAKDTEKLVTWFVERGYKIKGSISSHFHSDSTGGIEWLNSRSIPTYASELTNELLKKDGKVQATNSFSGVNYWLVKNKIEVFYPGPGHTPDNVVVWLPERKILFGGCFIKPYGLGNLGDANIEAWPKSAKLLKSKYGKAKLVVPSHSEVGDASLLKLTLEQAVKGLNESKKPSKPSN

Row | Compound | IC50 (IMP-1; enzyme 2 pM) | IC50 (NDM-1; enzyme 1 pM) | IC50 (VIM-1; enzyme 30 pM) | NDM1 EC30005 MITC95 [1, 4] | VIM1 KP599644 MITC95 [2, 5] | IMP1 SM5741 MITC95 [3, 6] | IC50 (IMP-1; IMP-1 enzyme 2 pM) | IC50 (NDM-1; NDM-1 enzyme 1 pM) | IC50 (VIM-1; VIM-1 enzyme 30 pM) | NDM1 EC30005 MITC95 [1, 7] | VIM1 KP599644 MITC95 [2, 8] | IMP1 SM5741 MITC95 [3, 9]
1 | CCC[C@H](C(=O)O)[C@H](Cc1ccc(-c2cccc3c2CNC3=O)cc1)c1nnn[nH]1 [Example 238, (2S)-2-[(1S)-2-[4-(1-oxo-2,3-dihydro-1H-isoindol-4-yl)phenyl]-1-(1H-tetrazol-5-yl)ethyl]pentanoic acid] | 49 nM | 6.5 nM | 1.7 nM | 50 µM | 200 µM | 6.2 µM |  |  |  |  |  | 
2 | CCC[C@H](C(=O)O)[C@H](Cc1ccc(-c2ccc(S(N)(=O)=O)cc2)cc1)c1nn[nH]n1 [Example 197, (2S)-2-[(1S)-2-(4′-sulfamoylbiphenyl-4-yl)-1-(2H-tetrazol-5-yl)ethyl]pentanoic acid] | 28 nM | 4.9 nM | 0.89 nM | 4.7 µM | 18.8 µM | 14 µM |  |  |  |  |  | 
3 | CCC[C@H](C(=O)O)[C@H](Cc1ccc(-c2ccc3c(c2)CCC(N)C3)cc1)c1nn[nH]n1 (stereo partly drawn) [Example 193, (2S)-2-[(1S)-2-[4-(6-amino-5,6,7,8-tetrahydronaphthalen-2-yl)phenyl]-1-(2H-tetrazol-5-yl)ethyl]pentanoic acid] | 45 nM | 58 nM | 18 nM | 4.7 µM | 50 µM | 6.2 µM |  |  |  |  |  | 
4 | CC(C)CCC[C@H](C(=O)O)[C@H](Cc1ccccc1)c1nnn[nH]1 [Example 1, (S)-6-Methyl-2-((S)-2-phenyl-1-(1H-tetrazol-5-yl)ethyl)heptanoic acid] | 280 nM | 870 nM | > 20000 nM | 75 µM | >200 µM | 138 µM |  |  |  |  |  | 
5 | CCC[C@H](C(=O)O)[C@H](Cc1ccc(-c2ccc3nncn3c2)cc1)c1nnn[nH]1 [Example 239, (2S)-2-[(1S)-1-(1H-tetrazol-5-yl)-2-(4-[1,2,4]triazolo[4,3-a]pyridin-6-ylphenyl)ethyl]pentanoic acid] | 190 nM | 20 nM | 1.7 nM | 38 µM | 75 µM | 38 µM |  |  |  |  |  | 
6 | O=C(O)[C@@H](C1CCCC1)[C@H](Cc1ccccc1)c1nnn[nH]1 [Example 17, (2S,3S)-2-cyclopentyl-4-phenyl-3-(1H-tetrazol-5-yl)butanoic acid] | 110 nM | 16 nM | 3.7 nM | 18.8 µM | 37.5 µM | 37.5 µM |  |  |  |  |  | 
7 | CCC[C@H](C(=O)O)[C@H](Cc1ccc(-c2ccc(-c3nnn[nH]3)cc2)cc1)c1nnn[nH]1 [Example 246, (2S)-2-{(1S)-1-(1H-tetrazol-5-yl)-2-[4′-(1H-tetrazol-5-yl)biphenyl-4-yl]ethyl}pentanoic acid] |  |  |  |  |  |  | 9.7 nM | 1.1 nM | 2.2 nM | 38 µM | 100 µM | 6.2 µM
8 | CCC[C@H](C(=O)O)[C@H](Cc1ccc(-c2cnc3[nH]c(=O)[nH]c3c2)cc1)c1nnn[nH]1 [Example 247, (2S)-2-[(1S)-2-[4-(2-oxo-2,3-dihydro-1H-imidazo[4,5-b]pyridin-6-yl)phenyl]-1-(1H-tetrazol-5-yl)ethyl]pentanoic acid] |  |  |  |  |  |  | 92 nM | 13 nM | 0.64 nM | 31 µM | 100 µM | 16 µM
9 | CCC[C@H](C(=O)O)[C@H](Cc1ccc(-c2ccc(C(C)N3CCOCC3)cc2)cc1)c1nn[nH]n1 (stereo partly drawn) [Example 192, (2S)-2-[(1S)-2-[4′-(1-morpholin-4-ylethyl)biphenyl-4-yl]-1-(2H-tetrazol-5-yl)ethyl]pentanoic acid] | 45 nM | 29 nM | 29 nM | 7.8 µM | 200 µM | 9.4 µM |  |  |  |  |  | 
10 | CCC[C@H](C(=O)O)[C@H](Cc1ccc(-c2ccc3c(c2)CCNC3)cc1)c1nnn[nH]1 [Example 237, (2S)-2-[(1S)-2-[4-(1,2,3,4-tetrahydroisoquinolin-6-yl)phenyl]-1-(1H-tetrazol-5-yl)ethyl]pentanoic acid] | 88 nM | 88 nM | 4 nM | 9.4 µM | 38 µM | 4.7 µM |  |  |  |  |  | 
11 | O=C(O)[C@@H](Cc1ccccc1)[C@H](Cc1ccccc1)c1nnn[nH]1 [Example 3, (2S,3S)-2-benzyl-4-phenyl-3-(1H-tetrazol-5-yl)butanoic acid] | 550 nM | 350 nM | 640 nM | 200 µM | >200 µM | 112.5 µM |  |  |  |  |  | 
12 | CCC[C@H](C(=O)O)[C@H](Cc1ccc(-c2ccc3ncnn3c2)cc1)c1nnn[nH]1 [Example 241, (2S)-2-[(1S)-1-(1H-tetrazol-5-yl)-2-(4-[1,2,4]triazolo[1,5-a]pyridin-6-ylphenyl)ethyl]pentanoic acid] | 58 nM | 13 nM | 0.64 nM | 75 µM | 38 µM | 9.4 µM |  |  |  |  |  | 
13 | CCC[C@H](C(=O)O)[C@H](Cc1ccc(-c2ccc(C(=O)NC)cc2)cc1)c1nn[nH]n1 [Example 202, (2S)-2-[(1S)-2-[4′-(methylcarbamoyl)biphenyl-4-yl]-1-(2H-tetrazol-5-yl)ethyl]pentanoic acid] | 22 nM | 5.9 nM | 2.3 nM | 9.4 µM | 50 µM | 4.7 µM |  |  |  |  |  | 
14 | CCC[C@H](C(=O)O)[C@H](Cc1ccc(-c2cccc(C(N)=O)c2)cc1)c1nn[nH]n1 [Example 201, (2S)-2-[(1S)-2-(3′-carbamoylbiphenyl-4-yl)-1-(2H-tetrazol-5-yl)ethyl]pentanoic acid] | 29 nM | 9 nM | 2.1 nM | 7.8 µM | 62 µM | 12.5 µM |  |  |  |  |  | 
15 | CCC[C@H](C(=O)O)[C@H](Cc1ccc(-c2ccc3c(c2)CNC3)cc1)c1nnn[nH]1 [Example 245, (2S)-2-[(1S)-2-[4-(2,3-dihydro-1H-isoindol-5-yl)phenyl]-1-(1H-tetrazol-5-yl)ethyl]pentanoic acid] |  |  |  |  |  |  | 85 nM | 57 nM | 3.7 nM | 9.4 µM | 25 µM | 6.2 µM
16 | CCC[C@H](C(=O)O)[C@H](Cc1ccc(COCCN2CCOCC2)cc1)c1nn[nH]n1 [Example 252, (2S)-2-[(1S)-2-{4-[(2-morpholin-4-ylethoxy)methyl]phenyl}-1-(2H-tetrazol-5-yl)ethyl]pentanoic acid] |  |  |  |  |  |  | 800 nM | 180 nM | 89 nM | 15 µM | 50 µM | 150 µM
17 | CC[C@H](C)[C@H](C(=O)O)[C@H](Cc1ccc(-c2ccc(-c3nnn[nH]3)cc2)cc1)c1nn[nH]n1 [Example 58, (2S,3S)-2-((S)-2-(4′-(1H-tetrazol-5-yl)-[1,1′-biphenyl]-4-yl)-1-(2H-tetrazol-5-yl)ethyl)-3-methylpentanoic acid] | 1.4 nM | < 0.64 nM | 5.1 nM | 18.8 µM | 200 µM | 12.9 µM |  |  |  |  |  | 

— US9839642B2, “Beta-tetrazolyl-propionic acids as metallo-beta-lactamase inhibitors” (priority 2014, dated 2017)
